According to US20240101559A1, “TRICYCLIC KINASE INHIBITORS AND USES THEREOF” (DANA-FARBER CANCER INSTITUTE, INC., priority 2019, published 2024):
One block for each compound: values may come before it.

Assays:
CDK11A = CDK11A (Homo sapiens (Human), UniProt Q9UQ88); assay: Competition binding assay (kinase-tagged phage, qPCR); conditions: 11 serial threefold dilutions, read-out: inhibition on CDK11A, IC50
Experimental: Compounds of the present disclosure were analyzed with a competition binding assay with three components: a kinase-tagged phage, a compound of the present disclosure, and an immobilized ligand that the test compound competes with to displace the kinase. The amount of kinase bound to the immobilized ligand is determined using quantitative PCR of the DNA tag. Kd values (nM) reported for each compound were determined using 11 serial threefold dilutions of test compound and a DMSO control.

[1] = Commercial microsome stability assay (half-life analysis); type: in vitro ADME; conditions: mouse liver microsomes; read-out: half-life in mouse liver microsomes (MLM)
CDK11/CycL = assay: NanoBRET assay, CDK11/CycL; type: cell-based; conditions: live cells, read-out: inhibition of CDK11/CycL interaction
From the text: (§1) The NanoBRET™ assay (Promega Corporation) is a bioluminescence resonance energy transfer (BRET)-based assay that uses NanoLuc® Luciferase as the BRET energy donor and HaloTag® protein labeled with the HaloTag® NanoBRET™ 618 fluorescent Ligand as the energy acceptor to measure the interaction of two binding partners in live cells.

CDK11/cycK = assay: NanoBRET assay, CDK11/cycK; type: cell-based; conditions: live cells, read-out: inhibition of CDK11/cycK interaction
From the text: as §1

DDR2 = DDR2 (Homo sapiens (Human), UniProt Q16832); assay: KINOMEscan kinase selectivity profiling; type: binding; conditions: DDR2, 1 μM; read-out: Ambit KINOMEscan (percent control %)
From the text: (§2) Example 7. In Vitro Kinase Selectivity Profiling of the Compounds of the Present Disclosure

KIT(L576P) = KIT(L576P) (Homo sapiens (Human), UniProt P10721, L576P); assay: KINOMEscan kinase selectivity profiling; type: binding; conditions: read-out: Ambit KINOMEscan (percent control %)
From the text: as §2

DDR1 = DDR1 (Homo sapiens (Human), UniProt Q08345); assay: KINOMEscan kinase selectivity profiling; type: binding; conditions: DDR1, 1 μM; read-out: Ambit KINOMEscan (percent control %)
From the text: as §2

CDK11B = CDK11B (Homo sapiens (Human), UniProt P21127); assay: KINOMEscan kinase selectivity profiling; type: binding; conditions: read-out: Ambit KINOMEscan (percent control %)
From the text: as §2

BRAF(V600E) = BRAF(V600E) (Homo sapiens (Human), UniProt P15056, V600E); assay: KINOMEscan kinase selectivity profiling; type: binding; conditions: read-out: Ambit KINOMEscan (percent control %)
From the text: as §2

BRAF = BRAF (Homo sapiens (Human), UniProt P15056); assay: KINOMEscan kinase selectivity profiling; type: binding; conditions: read-out: Ambit KINOMEscan (percent control %)
From the text: as §2

CSF1R = CSF1R (Homo sapiens (Human), UniProt P07333); assay: KINOMEscan kinase selectivity profiling; type: binding; conditions: read-out: Ambit KINOMEscan (percent control %)
From the text: as §2

TAOK2 = TAOK2 (Homo sapiens (Human), UniProt Q9UL54); assay: KINOMEscan kinase selectivity profiling; type: binding; conditions: TAOK2, 1 μM; read-out: Ambit KINOMEscan (percent control %)
From the text: as §2

CDC2L2 = CDC2L2 (Homo sapiens (Human), UniProt Q9UQ88); assay: KINOMEscan kinase selectivity profiling; type: binding; conditions: CDC2L2, 1 μM; read-out: Ambit KINOMEscan (percent control %)
From the text: as §2

PDGFRB = PDGFRB (Homo sapiens (Human), UniProt P09619); assay: KINOMEscan kinase selectivity profiling; type: binding; conditions: read-out: Ambit KINOMEscan (percent control %)
From the text: as §2

JAK2 = JAK2 (Homo sapiens (Human), UniProt O60674); assay: JAK2 Z-Lyte biochemical assay; conditions: commercial JAK2 Z-Lyte assay from Invitrogen
Experimental: Example 3. JAK2 Z-Lyte Biochemical Assay of the Compounds of the Present Disclosure
The JAK2 Z-Lyte biochemical assay was performed according to manufacturer's instructions (Life Technologies).

[2] = system: cell lines or patient-derived xenografts from patients with CRLF2-rearranged B-ALL; conditions: cited from earlier work

JAK2, sequence (O60674 whole entry): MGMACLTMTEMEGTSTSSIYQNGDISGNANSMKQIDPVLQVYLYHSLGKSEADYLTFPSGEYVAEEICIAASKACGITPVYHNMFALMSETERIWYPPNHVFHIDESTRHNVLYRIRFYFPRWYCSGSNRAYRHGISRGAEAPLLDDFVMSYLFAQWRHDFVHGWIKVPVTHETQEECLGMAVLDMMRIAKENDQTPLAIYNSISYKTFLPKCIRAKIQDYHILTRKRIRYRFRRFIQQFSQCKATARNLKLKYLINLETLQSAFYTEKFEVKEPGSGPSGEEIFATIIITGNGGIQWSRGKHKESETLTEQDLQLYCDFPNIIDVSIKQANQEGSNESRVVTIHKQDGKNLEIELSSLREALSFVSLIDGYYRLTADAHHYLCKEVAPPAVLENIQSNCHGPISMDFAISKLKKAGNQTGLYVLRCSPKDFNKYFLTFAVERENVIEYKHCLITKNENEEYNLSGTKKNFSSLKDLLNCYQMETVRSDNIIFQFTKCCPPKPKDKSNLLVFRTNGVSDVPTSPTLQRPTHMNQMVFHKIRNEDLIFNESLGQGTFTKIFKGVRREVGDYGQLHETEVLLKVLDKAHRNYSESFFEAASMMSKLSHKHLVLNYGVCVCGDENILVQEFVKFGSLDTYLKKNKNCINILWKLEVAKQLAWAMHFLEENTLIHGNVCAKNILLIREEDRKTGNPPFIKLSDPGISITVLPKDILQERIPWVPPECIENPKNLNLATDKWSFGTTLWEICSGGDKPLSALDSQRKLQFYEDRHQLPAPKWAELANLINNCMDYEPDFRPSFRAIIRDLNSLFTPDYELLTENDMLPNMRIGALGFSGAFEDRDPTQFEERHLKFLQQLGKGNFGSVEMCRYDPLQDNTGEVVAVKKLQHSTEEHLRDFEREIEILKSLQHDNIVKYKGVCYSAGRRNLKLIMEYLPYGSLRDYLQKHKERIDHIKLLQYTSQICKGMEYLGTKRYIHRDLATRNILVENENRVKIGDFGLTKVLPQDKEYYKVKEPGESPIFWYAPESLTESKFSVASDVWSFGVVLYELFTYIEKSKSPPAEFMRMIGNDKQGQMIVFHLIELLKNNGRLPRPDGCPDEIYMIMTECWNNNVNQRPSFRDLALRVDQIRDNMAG
KIT(L576P), sequence (P10721 26-976 L576P): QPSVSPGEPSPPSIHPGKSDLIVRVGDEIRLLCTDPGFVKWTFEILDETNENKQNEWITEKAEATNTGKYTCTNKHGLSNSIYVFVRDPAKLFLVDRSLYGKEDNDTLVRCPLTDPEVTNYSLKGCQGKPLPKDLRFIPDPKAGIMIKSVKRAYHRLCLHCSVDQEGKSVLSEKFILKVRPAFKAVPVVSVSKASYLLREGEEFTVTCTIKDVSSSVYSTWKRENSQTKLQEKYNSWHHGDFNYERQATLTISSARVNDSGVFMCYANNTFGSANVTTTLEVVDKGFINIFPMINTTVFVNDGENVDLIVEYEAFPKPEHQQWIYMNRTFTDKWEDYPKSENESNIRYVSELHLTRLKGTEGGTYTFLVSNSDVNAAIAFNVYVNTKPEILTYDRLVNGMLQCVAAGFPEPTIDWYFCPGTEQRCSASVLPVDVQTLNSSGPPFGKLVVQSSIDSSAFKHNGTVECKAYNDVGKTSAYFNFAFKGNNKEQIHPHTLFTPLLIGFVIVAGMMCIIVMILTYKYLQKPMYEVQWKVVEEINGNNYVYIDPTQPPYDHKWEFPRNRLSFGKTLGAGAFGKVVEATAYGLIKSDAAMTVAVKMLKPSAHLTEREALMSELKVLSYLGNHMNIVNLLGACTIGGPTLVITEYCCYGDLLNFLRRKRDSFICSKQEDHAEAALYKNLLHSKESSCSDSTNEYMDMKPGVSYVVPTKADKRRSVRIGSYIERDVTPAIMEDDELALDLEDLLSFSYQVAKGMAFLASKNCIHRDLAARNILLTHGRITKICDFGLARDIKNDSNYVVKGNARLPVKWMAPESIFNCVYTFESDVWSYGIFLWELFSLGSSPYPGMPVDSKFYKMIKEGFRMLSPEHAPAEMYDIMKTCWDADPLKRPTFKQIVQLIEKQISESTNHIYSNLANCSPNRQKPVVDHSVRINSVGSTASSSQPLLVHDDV
CDC2L2, sequence (Q9UQ88 whole entry): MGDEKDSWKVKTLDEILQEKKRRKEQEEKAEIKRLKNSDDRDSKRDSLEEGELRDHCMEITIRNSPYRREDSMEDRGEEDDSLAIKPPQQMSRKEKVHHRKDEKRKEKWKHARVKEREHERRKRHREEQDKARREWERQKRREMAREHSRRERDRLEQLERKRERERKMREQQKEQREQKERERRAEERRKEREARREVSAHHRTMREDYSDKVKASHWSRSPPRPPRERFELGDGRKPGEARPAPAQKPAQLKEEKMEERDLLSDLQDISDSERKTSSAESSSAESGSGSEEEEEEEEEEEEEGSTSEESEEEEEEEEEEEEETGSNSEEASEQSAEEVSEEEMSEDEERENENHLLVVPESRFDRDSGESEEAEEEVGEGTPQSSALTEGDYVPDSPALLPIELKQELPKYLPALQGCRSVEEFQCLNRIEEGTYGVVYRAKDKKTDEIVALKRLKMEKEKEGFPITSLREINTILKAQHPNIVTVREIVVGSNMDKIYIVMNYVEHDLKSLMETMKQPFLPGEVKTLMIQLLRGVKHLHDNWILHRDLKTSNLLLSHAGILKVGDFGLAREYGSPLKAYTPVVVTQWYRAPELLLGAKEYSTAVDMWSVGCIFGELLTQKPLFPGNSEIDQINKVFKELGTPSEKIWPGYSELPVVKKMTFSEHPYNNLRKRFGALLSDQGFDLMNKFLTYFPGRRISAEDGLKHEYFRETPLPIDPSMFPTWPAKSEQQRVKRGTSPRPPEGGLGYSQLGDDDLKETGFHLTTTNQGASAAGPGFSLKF
CDK11A, sequence (Q9UQ88 whole entry): as above
DDR1, sequence (Q08345 19-913): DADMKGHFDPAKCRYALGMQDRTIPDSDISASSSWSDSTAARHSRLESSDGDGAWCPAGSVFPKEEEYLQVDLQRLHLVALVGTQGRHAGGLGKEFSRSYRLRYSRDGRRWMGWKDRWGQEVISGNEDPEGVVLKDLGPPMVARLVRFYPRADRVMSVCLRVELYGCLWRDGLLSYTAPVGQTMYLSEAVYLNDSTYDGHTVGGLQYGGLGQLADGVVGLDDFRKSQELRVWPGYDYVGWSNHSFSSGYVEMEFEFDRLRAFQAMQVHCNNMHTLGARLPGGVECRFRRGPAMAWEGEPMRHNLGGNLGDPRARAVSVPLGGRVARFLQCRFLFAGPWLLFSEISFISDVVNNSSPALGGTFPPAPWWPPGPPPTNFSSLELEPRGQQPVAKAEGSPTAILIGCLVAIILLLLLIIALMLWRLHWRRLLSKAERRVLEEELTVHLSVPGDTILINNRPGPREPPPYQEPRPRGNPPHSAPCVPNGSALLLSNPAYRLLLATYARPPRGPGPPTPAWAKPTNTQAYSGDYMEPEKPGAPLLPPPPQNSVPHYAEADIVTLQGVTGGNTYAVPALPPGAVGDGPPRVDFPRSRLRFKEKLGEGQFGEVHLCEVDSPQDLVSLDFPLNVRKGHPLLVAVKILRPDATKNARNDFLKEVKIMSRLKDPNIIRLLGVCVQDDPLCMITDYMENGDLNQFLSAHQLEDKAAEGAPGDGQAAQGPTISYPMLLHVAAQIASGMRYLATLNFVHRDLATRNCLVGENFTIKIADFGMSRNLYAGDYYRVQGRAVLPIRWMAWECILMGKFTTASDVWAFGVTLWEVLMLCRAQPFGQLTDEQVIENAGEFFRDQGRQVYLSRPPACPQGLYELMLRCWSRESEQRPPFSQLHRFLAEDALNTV
PDGFRB, sequence (P09619 33-1106): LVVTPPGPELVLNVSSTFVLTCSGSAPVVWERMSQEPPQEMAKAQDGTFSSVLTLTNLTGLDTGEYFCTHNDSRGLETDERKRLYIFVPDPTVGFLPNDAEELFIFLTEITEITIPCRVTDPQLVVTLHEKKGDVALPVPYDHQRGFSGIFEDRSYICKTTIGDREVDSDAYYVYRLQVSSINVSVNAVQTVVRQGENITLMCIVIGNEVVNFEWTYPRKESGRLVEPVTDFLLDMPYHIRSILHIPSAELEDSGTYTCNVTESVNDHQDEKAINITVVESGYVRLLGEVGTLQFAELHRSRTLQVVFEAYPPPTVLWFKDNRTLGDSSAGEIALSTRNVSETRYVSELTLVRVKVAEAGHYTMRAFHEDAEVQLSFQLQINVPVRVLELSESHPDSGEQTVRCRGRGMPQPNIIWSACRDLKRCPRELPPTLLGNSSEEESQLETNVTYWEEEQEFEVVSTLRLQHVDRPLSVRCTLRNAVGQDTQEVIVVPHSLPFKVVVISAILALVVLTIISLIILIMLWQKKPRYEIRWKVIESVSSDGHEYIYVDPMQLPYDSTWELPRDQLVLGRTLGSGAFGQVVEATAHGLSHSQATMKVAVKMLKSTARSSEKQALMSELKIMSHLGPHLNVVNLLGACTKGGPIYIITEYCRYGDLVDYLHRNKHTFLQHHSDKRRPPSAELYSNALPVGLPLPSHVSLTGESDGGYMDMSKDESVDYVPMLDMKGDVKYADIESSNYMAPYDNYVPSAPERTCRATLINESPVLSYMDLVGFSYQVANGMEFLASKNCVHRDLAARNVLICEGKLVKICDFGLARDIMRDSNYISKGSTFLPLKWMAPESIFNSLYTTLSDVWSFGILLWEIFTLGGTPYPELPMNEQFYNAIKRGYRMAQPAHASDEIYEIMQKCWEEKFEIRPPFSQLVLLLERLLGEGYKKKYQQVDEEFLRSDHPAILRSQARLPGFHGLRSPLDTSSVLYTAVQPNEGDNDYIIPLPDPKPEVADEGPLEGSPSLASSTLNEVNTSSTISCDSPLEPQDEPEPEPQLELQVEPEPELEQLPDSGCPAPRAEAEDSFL

SMILES: CC(=O)Nc1cc(Oc2ccc3nc(Nc4ccc(Cl)c(C(F)(F)F)c4)n4c3c2CCC4)ccn1 [Compound I-3, N-(4-((2-((4-chloro-3-(trifluoromethyl)phenyl)amino)-5,6-dihydro-4H-imidazo[4,5,1-ij]quinolin-7-yl)oxy)pyridin-2-yl)acetamide]
IC50 (JAK2): > 10 µM

SMILES: CC(=O)Nc1cc(Oc2ccc3nc(Nc4ccc(CN5CCN(C)CC5)cc4)n4c3c2CCC4)ccn1 [Compound I-5, N-(4-((2-((4-((4-methylpiperazin-1-yl)methyl)phenyl)amino)-5,6-dihydro-4H-imidazo[4,5,1-ij]quinolin-7-yl)oxy)pyridin-2-yl)acetamide]
IC50 (JAK2): 5.94 µM

SMILES: CC(=O)Nc1cc(Oc2ccc3nc(Nc4cc(N5CCN(C)CC5)cc(C(F)(F)F)c4)n4c3c2CCC4)ccn1 [Compound I-8, N-(4-((2-((3-(4-methylpiperazin-1-yl)-5-(trifluoromethyl)phenyl)amino)-5,6-dihydro-4H-imidazo[4,5,1-ij]quinolin-7-yl)oxy)pyridin-2-yl)acetamide]
IC50 (JAK2): 9.93 µM

SMILES: CC(=O)Nc1cc(Oc2ccc3nc(Nc4cc(C(C)(C)C)nn4-c4ccc(C)cc4)n4c3c2CCC4)ccn1 [Compound I-10, N-(4-((2-((3-(tert-butyl)-1-(p-tolyl)-1H-pyrazol-5-yl)amino)-5,6-dihydro-4H-imidazo[4,5,1-ij]quinolin-7-yl)oxy)pyridin-2-yl)acetamide]
IC50 (JAK2): > 10 µM

SMILES: N#CC[C@H](C1CCCC1)n1cc(-c2ncnc3[nH]ccc23)cn1 [Ruxolitinib]
IC50 [2]: > 20 µM

Other lines, results leading:

IC50 (CDK11A): 0.03 µM | half-life [1]: 16.7 min | IC50 (CDK11/CycL): 0.29 µM | IC50 (CDK11/cycK): 0.278 µM | remaining binding at 1 µM (DDR2): 0% | remaining binding at 1 µM (KIT(L576P)): 0.2% | remaining binding at 1 µM (DDR1): 0% | remaining binding at 1 µM (CDK11B): 1.3% | remaining binding at 1 µM (BRAF(V600E)): 2% | remaining binding at 1 µM (BRAF): 5.5% | remaining binding at 1 µM (CSF1R): 0.75% | remaining binding at 1 µM (TAOK2): 0.3% | remaining binding at 1 µM (CDC2L2): 1% | remaining binding at 1 µM (PDGFRB): 0.1% | IC50 (JAK2): 0.82 µM
SMILES: CCN1CCN(Cc2ccc(Nc3nc4ccc(Oc5ccnc(NC(C)=O)c5)c5c4n3CCC5)cc2C(F)(F)F)CC1 [Compound I-1, N-(4-((2-((4-((4-ethylpiperazin-1-yl)methyl)-3-(trifluoromethyl)phenyl)amino)-5,6-dihydro-4H-imidazo [4,5,1-ij]quinolin-7-yl)oxy)pyridin-2-yl) acetamide]

IC50 (JAK2): 1.81 µM
SMILES: CCN1CCN(Cc2cc(Nc3nc4ccc(Oc5ccnc(NC(C)=O)c5)c5c4n3CCC5)cc(C(F)(F)F)c2)CC1 [Compound I-4, N-(4-((2-((3-((4-ethylpiperazin-1-yl)methyl)-5-(trifluoromethyl)phenyl)amino)-5,6-dihydro-4H-imidazo[4,5,1-ij]quinolin-7-yl)oxy)pyridin-2-yl)acetamide]

IC50 (JAK2): 1.82 µM
SMILES: CC(=O)Nc1cc(Oc2ccc3nc(Nc4ccc(F)cc4F)n4c3c2CCC4)ccn1 [Compound I-6, N-(4-((2-((2,4-difluorophenyl)amino)-5,6-dihydro-4H-imidazo[4,5,1-ij]quinolin-7-yl)oxy)pyridin-2-yl)acetamide]

IC50 (JAK2): 4.56 µM
SMILES: CC(=O)Nc1cc(Oc2ccc3nc(Nc4cc(-n5cnc(C)c5)cc(C(F)(F)F)c4)n4c3c2CCC4)ccn1 [Compound I-7, N-(4-((2-((3-(4-methyl-1H-imidazol-1-yl)-5-(trifluoromethyl)phenyl)amino)-5,6-dihydro-4H-imidazo[4,5,1-ij]quinolin-7-yl)oxy)pyridin-2-yl)acetamide]

IC50 (JAK2): 1.77 µM
SMILES: CC(=O)Nc1cc(Oc2ccc3nc(Nc4ccc(CN5CCC(N(C)C)C5)c(C(F)(F)F)c4)n4c3c2CCC4)ccn1 (stereo not shown) [Compound I-9, N-(4-((2-((4-((3-(dimethylamino)pyrrolidin-1-yl)methyl)-3-(trifluoromethyl)phenyl)amino)-5,6-dihydro-4H-imidazo[4,5,1-ij]quinolin-7-yl)oxy)pyridin-2-yl)acetamide]

IC50 (JAK2): 3.68 µM
SMILES: CC(=O)Nc1cc(Oc2ccc3nc(Nc4ccc(OC5CCN(C)CC5)c(C(F)(F)F)c4)n4c3c2CCC4)ccn1 [Compound I-11, N-(4-((2-((4-((1-methylpiperidin-4-yl)oxy)-3-(trifluoromethyl)phenyl)amino)-5,6-dihydro-4H-imidazo[4,5,1-ij]quinolin-7-yl)oxy)pyridin-2-yl)acetamide]
